Reference: patent publication US9708316B2 (BRISTOL-MYERS SQUIBB COMPANY, priority 2014, dated 2017)
Like-named read-outs stand apart in the source and are kept apart here.

How the values were obtained:
HIS-TGFβR1 T204D = target: T1, HIS-TGFβR1 T204D (Homo sapiens, UniProt P36897, T204D); test: HTRF probe-displacement assay, HIS-TGFβR1 T204D; type: binding; details: read-out: TGFβR1 (μM) IC50
T1 sequence (P36897 34-503 T204D): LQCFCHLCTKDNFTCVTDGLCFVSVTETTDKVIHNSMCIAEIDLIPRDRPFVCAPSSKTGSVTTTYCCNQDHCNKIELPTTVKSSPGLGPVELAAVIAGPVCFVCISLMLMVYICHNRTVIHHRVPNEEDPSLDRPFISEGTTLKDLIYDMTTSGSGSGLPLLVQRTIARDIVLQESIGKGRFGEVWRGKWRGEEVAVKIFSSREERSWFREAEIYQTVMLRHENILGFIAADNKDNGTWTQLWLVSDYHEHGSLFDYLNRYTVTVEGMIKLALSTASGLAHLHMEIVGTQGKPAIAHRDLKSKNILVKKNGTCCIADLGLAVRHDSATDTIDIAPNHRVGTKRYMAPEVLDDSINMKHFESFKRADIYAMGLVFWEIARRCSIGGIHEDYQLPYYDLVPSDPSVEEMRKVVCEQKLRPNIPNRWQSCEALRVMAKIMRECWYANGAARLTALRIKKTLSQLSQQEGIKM

HIS-TGFβR2 WT = HIS-TGFβR2 WT (Homo sapiens, UniProt P37173); test: HTRF probe-displacement assay, HIS-TGFβR2 WT; type: binding
Chain of HIS-TGFβR2 WT (P37173 23-567): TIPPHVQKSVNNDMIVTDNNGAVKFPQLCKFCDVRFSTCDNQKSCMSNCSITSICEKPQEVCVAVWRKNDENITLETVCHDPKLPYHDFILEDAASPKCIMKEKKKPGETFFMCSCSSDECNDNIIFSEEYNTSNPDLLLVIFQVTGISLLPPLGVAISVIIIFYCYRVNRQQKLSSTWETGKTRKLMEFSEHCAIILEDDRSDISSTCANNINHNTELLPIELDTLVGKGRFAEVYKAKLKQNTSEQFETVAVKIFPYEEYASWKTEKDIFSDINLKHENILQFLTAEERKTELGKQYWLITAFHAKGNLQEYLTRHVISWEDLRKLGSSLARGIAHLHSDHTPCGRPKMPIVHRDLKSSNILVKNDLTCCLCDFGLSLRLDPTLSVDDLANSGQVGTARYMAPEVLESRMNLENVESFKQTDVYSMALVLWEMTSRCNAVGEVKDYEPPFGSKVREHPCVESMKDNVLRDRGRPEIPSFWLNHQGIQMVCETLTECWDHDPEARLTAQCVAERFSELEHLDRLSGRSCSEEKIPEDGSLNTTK

Compound | IC50 (HIS-TGFβR1 T204D) [µM] | IC50 (HIS-TGFβR2 WT) [µM] | IC50 (HIS-TGFβR1 T204D; 1 nM HIS-TGFβR1 T204D, labeled probe at Kd, 1 hour room temperature, eleven concentrations) [µM]
CC(=O)Nc1cc(-c2[nH]c3cc(F)cnc3c2-c2ncc(C(F)F)s2)ccn1 [Example 182, N-(4-(3-(5-(Difluoromethyl)thiazol-2-yl)-6-fluoro-1H-pyrrolo[3,2-b]pyridin-2-yl)pyridin-2-yl)acetamide] | 0.182 | > 15 | 
CC(=O)Nc1cc(-c2[nH]c3cc(F)cnc3c2-c2ncc(Cl)s2)ccn1 [Example 206, N-(4-(3-(5-Chlorothiazol-2-yl)-6-fluoro-1H-pyrrolo[3,2-b]pyridin-2-yl)pyridin-2-yl)acetamide] | 0.0068 | 0.325 | 
COc1ccc(-c2c(-c3ccnc(NC(C)=O)c3)[nH]c3c(CO)ccnc23)cn1 [Example 274, N-(4-(7-(Hydroxymethyl)-3-(6-methoxypyridin-3-yl)-1H-pyrrolo[3,2-b]pyridin-2-yl)pyridin-2-yl)acetamide] | 0.001 | 0.114 | 
COc1cnc2c(-c3ccc(F)cn3)c(-c3ccnc(NC(C)=O)c3)[nH]c2c1 [Example 49, N-{4-[3-(5-Fluoropyridin-2-yl)-6-methoxy-1H-pyrrolo[3,2-b]pyridin-2-yl]pyridin-2-yl}acetamide] | 0.003 | 0.24 | 
COc1ccc(-c2c(-c3ccnc(NC(C)=O)c3)[nH]c3cc(F)cnc23)cn1 [Example 40, N-{4-[6-Fluoro-3-(6-methoxypyridin-3-yl)-1H-pyrrolo[3,2-b]pyridin-2-yl]pyridin-2-yl}acetamide] | 0.005 | 0.067 | 
COc1ccc(-c2c(-c3ccnc(NC(=O)CN4CCOCC4)c3)[nH]c3cc(Cl)cnc23)nc1 [Example 250, N-(4-(6-Chloro-3-(5-methoxypyridin-2-yl)-1H-pyrrolo[3,2-b]pyridin-2-yl)pyridin-2-yl)-2-morpholinoacetamide] | 0.007 | > 15 | 
CC(=O)Nc1cc(-c2[nH]c3c(Cl)ccnc3c2-c2cccc(F)n2)ccn1 [Example 64, N-{4-[7-Chloro-3-(6-fluoropyridin-2-yl)-1H-pyrrolo[3,2-b]pyridin-2-yl]pyridin-2-yl}acetamide] | 0.009 | 0.3 | 
CCc1ccnc2c(-c3cccc(C(F)F)n3)c(-c3ccnc(NC(C)=O)c3)[nH]c12 [Example 128, N-(4-{3-[6-(Difluoromethyl)pyridin-2-yl]-7-ethyl-1H-pyrrolo[3,2-b]pyridin-2-yl}pyridin-2-yl)acetamide] |  | 5.26 | 
CC(=O)Nc1cc(-c2[nH]c3cc(OC(C)C)cnc3c2-c2cccc(C(F)F)n2)ccn1 [Example 102, N-(4-(3-(6-(Difluoromethyl)pyridin-2-yl)-6-isopropoxy-1H-pyrrolo[3,2-b]pyridin-2-yl)pyridin-2-yl)acetamide] |  | 3.45 | 
COc1ccnc2c(-c3nc(C(F)F)cs3)c(-c3ccnc(NC(C)=O)c3)[nH]c12 [Example 270, N-(4-(3-(4-(Difluoromethyl)thiazol-2-yl)-7-methoxy-1H-pyrrolo[3,2-b]pyridin-2-yl)pyridin-2-yl)acetamide] |  | 7.55 | 
[2H]C([2H])([2H])Oc1ccc(-c2c(-c3ccnc(NC(C)=O)c3)[nH]c3cc(F)cnc23)nc1 [Example 106, N-(4-(6-Fluoro-3-(5-(methoxy-d3)pyridin-2-yl)-1H-pyrrolo[3,2-b]pyridin-2-yl)pyridin-2-yl)acetamide] |  |  | 0.003
CC(=O)Nc1cc(-c2[nH]c3cc(OC4COC4)cnc3c2-c2cccc(C(F)F)n2)ccn1 [Example 99, N-(4-(3-(6-(Difluoromethyl)pyridin-2-yl)-6-(oxetan-3-yloxy)-1H-pyrrolo[3,2-b]pyridin-2-yl)pyridin-2-yl)acetamide] |  | 2.75 | 
CC(=O)Nc1cc(-c2[nH]c3cc(Cl)cnc3c2-c2csc(C)n2)ccn1 [Example 181, N-(4-(6-Chloro-3-(2-methylthiazol-4-yl)-1H-pyrrolo[3,2-b]pyridin-2-yl)pyridin-2-yl)acetamide] |  | 1.07 | 
CCOc1cnc2c(-c3cccc(C(F)F)n3)c(-c3ccnc(NC(C)=O)c3)[nH]c2c1 [Example 101, N-(4-(3-(6-(Difluoromethyl)pyridin-2-yl)-6-ethoxy-1H-pyrrolo[3,2-b]pyridin-2-yl)pyridin-2-yl)acetamide] |  | 4.29 | 
COc1ccnc2c(-c3cccc(F)n3)c(-c3ccnc(NC(C)=O)c3)[nH]c12 [Example 273, N-(4-(3-(6-Fluoropyridin-2-yl)-7-methoxy-1H-pyrrolo[3,2-b]pyridin-2-yl)pyridin-2-yl)acetamide] |  | 1.36 | 

Now from value to compound:

IC50 (HIS-TGFβR1 T204D) [µM] | IC50 (HIS-TGFβR2 WT) [µM] | IC50 (HIS-TGFβR1 T204D; 1 nM HIS-TGFβR1 T204D, labeled probe at Kd, 1 hour room temperature, eleven concentrations) [µM] | Compound
0.001 | > 15 |  | COc1cnc2c(-c3cccc(C)n3)c(-c3ccnc(NC(=O)CN4CCN(CCO)CC4)c3)[nH]c2c1 [Example 122, 2-[4-(2-Hydroxyethyl)piperazin-1-yl]-N-{4-[6-methoxy-3-(6-methy 1pyridin-2-yl)-1H-pyrrolo[3,2-b]pyridin-2-yl]pyridin-2-yl}acetamide]
0.002 | 0.06 |  | COc1ccc(-c2c(-c3ccnc(NC(C)=O)c3)[nH]c3ccc(F)nc23)cn1 [Example 36, N-{4-[5-Fluoro-3-(6-methoxypyridin-3-yl)-1H-pyrrolo[3,2-b]pyridin-2-yl]pyridin-2-yl}acetamide]
0.001 | 9.11 |  | CC(=O)Nc1cc(-c2[nH]c3c(C(C)O)ccnc3c2-c2nc(C(F)(F)F)cs2)ccn1 (centres unmarked) [Example 231, N-(4-(7-(1-Hydroxyethyl)-3-(4-(trifluoromethyl)thiazol-2-yl)-1H-pyrrolo[3,2-b]pyridin-2-yl)pyridin-2-yl)acetamide]
0.0011 | 1.48 |  | COc1ccc(-c2c(-c3ccnc(NC(C)=O)c3)[nH]c3cccnc23)nn1 [Example 198, N-(4-(3-(6-Methoxypyridazin-3-yl)-1H-pyrrolo[3,2-b]pyridin-2-yl)pyridin-2-yl)acetamide]
0.005 | 0.98 |  | CC(=O)Nc1cc(-c2[nH]c3c(Cl)ccnc3c2-c2ccc(F)cn2)ccn1 [Example 61, N-{4-[7-Chloro-3-(5-fluoropyridin-2-yl)-1H-pyrrolo[3,2-b]pyridin-2-yl]pyridin-2-yl}acetamide]
0.001 | 0.668 |  | COc1ccc(-c2c(-c3ccnc(NC(=O)CN4CCN(C)CC4)c3)[nH]c3cccnc23)cn1 [Example 287, N-(4-(3-(6-Methoxypyridin-3-yl)-1H-pyrrolo[3,2-b]pyridin-2-yl)pyridin-2-yl)-2-(4-methylpiperazin-1-yl)acetamide]
 | 5.65 |  | CC(=O)Nc1cc(-c2[nH]c3cc(F)cnc3c2-c2csc(C)n2)ccn1 [Example 207, N-(4-(6-Fluoro-3-(2-methylthiazol-4-yl)-1H-pyrrolo[3,2-b]pyridin-2-yl)pyridin-2-yl)acetamide]
 | 4.92 |  | COCC(C)Oc1cnc2c(-c3cccc(C(F)F)n3)c(-c3ccnc(NC(C)=O)c3)[nH]c2c1 (centres unmarked) [Example 103]
 | 2.62 |  | [2H]C([2H])([2H])Oc1cnc2c(-c3cccc(C(F)F)n3)c(-c3ccnc(NC(C)=O)c3)[nH]c2c1 [Example 100, N-(4-(3-(6-(Difluoromethyl)pyridin-2-yl)-6-(methoxy-d3)-1H-pyrrolo[3,2-b]pyridin-2-yl)pyridin-2-yl)acetamide]
 | 4.24 |  | COc1cnc2c(-c3csc(C#N)n3)c(-c3ccnc(NC(C)=O)c3)[nH]c2c1 [Example 228, N-(4-(3-(2-Cyanothiazol-4-yl)-6-methoxy-1H-pyrrolo[3,2-b]pyridin-2-yl)pyridin-2-yl)acetamide]
